Test results as given in the supplement of paper PMC10307832.

Columns and labels:
Assay in all cases: relative viability (nuclei count vs DMSO), 5 days (fraction); higher = more cells survive
[1] = test system: ABC-1
How it was run: (§1)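 One day after seeding in 1536-well plates, lung cancer cell lines were dosed by pin tool. Dosing was either single-drug or a fixed anchor-drug dose plus five library-drug doses (not always all listed) in √10 steps. After 5 days, nuclei were stained in one fix-and-stain step and counted on 4× images, and relative viability is the nuclei count of treated wells over that of vehicle wells, given as the median of duplicate plates.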

[2] = test system: BEN
How it was run: as §1

[3] = test system: CAL-12T
How it was run: as §1

[4] = test system: EKVX
How it was run: as §1

[5] = test system: EMC-BAC-2
How it was run: as §1

[6] = test system: EPLC-272H
How it was run: as §1

[7] = test system: HCC-78
How it was run: as §1

[8] = test system: HCC-827
How it was run: as §1

[9] = test system: LCLC-97TM1
How it was run: as §1

[10] = test system: LK-2
How it was run: as §1

[11] = test system: LOU-NH91
How it was run: as §1

[12] = test system: NCI-H1395
How it was run: as §1

[13] = test system: NCI-H1437
How it was run: as §1

[14] = test system: NCI-H1650
How it was run: as §1

[15] = test system: NCI-H1755
How it was run: as §1

[16] = test system: NCI-H2009
How it was run: as §1

[17] = test system: NCI-H2023
How it was run: as §1

[18] = test system: NCI-H2170
How it was run: as §1

[19] = test system: NCI-H522
How it was run: as §1

[20] = test system: NCI-H727
How it was run: as §1

[21] = test system: PC-14
How it was run: as §1

[22] = test system: SK-LU-1
How it was run: as §1

[23] = test system: SW 900
How it was run: as §1

[24] = test system: UMC-11
How it was run: as §1

Nc1cccc2c1CN(C1CCC(=O)NC1=O)C2=O (stereo not drawn) [Lenalidomide] + CC(=O)c1c(C)c2cnc(Nc3ccc(N4CCNCC4)cn3)nc2n(C2CCCC2)c1=O [Palbociclib] (partner 0.5 µM)
relative viability ([1]; first compound 0.253 µM): 0.577 | relative viability ([1]; first compound 0.8 µM): 0.518 | relative viability ([1]; first compound 2.53 µM): 0.904 | relative viability ([1]; first compound 8 µM): 0.671 | relative viability ([2]; first compound 0.253 µM): 0.478 | relative viability ([2]; first compound 0.8 µM): 0.496 | relative viability ([2]; first compound 2.53 µM): 0.418 | relative viability ([2]; first compound 8 µM): 0.556 | relative viability ([3]; first compound 0.253 µM): 0.402 | relative viability ([3]; first compound 0.8 µM): 0.579 | relative viability ([3]; first compound 2.53 µM): 0.785 | relative viability ([3]; first compound 8 µM): 0.472 | relative viability ([4]; first compound 0.253 µM): 0.415 | relative viability ([4]; first compound 0.8 µM): 0.309 | relative viability ([4]; first compound 2.53 µM): 0.355 | relative viability ([4]; first compound 8 µM): 0.372 | relative viability ([5]; first compound 0.253 µM): 0.503 | relative viability ([5]; first compound 0.8 µM): 0.473 | relative viability ([5]; first compound 2.53 µM): 0.52 | relative viability ([5]; first compound 8 µM): 0.448 | relative viability ([6]; first compound 0.253 µM): 0.34 | relative viability ([6]; first compound 0.8 µM): 0.383 | relative viability ([6]; first compound 2.53 µM): 0.333 | relative viability ([6]; first compound 8 µM): 0.322 | relative viability ([7]; first compound 0.253 µM): 0.48 | relative viability ([7]; first compound 0.8 µM): 0.416 | relative viability ([7]; first compound 2.53 µM): 0.463 | relative viability ([7]; first compound 8 µM): 0.47 | relative viability ([8]; first compound 0.253 µM): 0.506 | relative viability ([8]; first compound 0.8 µM): 0.432 | relative viability ([8]; first compound 2.53 µM): 0.538 | relative viability ([8]; first compound 8 µM): 0.489 | relative viability ([9]; first compound 0.253 µM): 0.229 | relative viability ([9]; first compound 0.8 µM): 0.185 | relative viability ([9]; first compound 2.53 µM): 0.209 | relative viability ([9]; first compound 8 µM): 0.212 | relative viability ([10]; first compound 0.253 µM): 0.575 | relative viability ([10]; first compound 0.8 µM): 0.734 | relative viability ([10]; first compound 2.53 µM): 0.845 | relative viability ([10]; first compound 8 µM): 0.649 | relative viability ([11]; first compound 0.253 µM): 0.564 | relative viability ([11]; first compound 0.8 µM): 0.515 | relative viability ([11]; first compound 2.53 µM): 0.487 | relative viability ([11]; first compound 8 µM): 0.429 | relative viability ([12]; first compound 0.253 µM): 0.649 | relative viability ([12]; first compound 2.53 µM): 0.701 | relative viability ([12]; first compound 8 µM): 0.592 | relative viability ([13]; first compound 0.253 µM): 0.331 | relative viability ([13]; first compound 0.8 µM): 0.246 | relative viability ([13]; first compound 2.53 µM): 0.359 | relative viability ([13]; first compound 8 µM): 0.353 | relative viability ([14]; first compound 0.253 µM): 0.339 | relative viability ([14]; first compound 0.8 µM): 0.279 | relative viability ([14]; first compound 2.53 µM): 0.343 | relative viability ([14]; first compound 8 µM): 0.453 | relative viability ([15]; first compound 0.253 µM): 0.451 | relative viability ([15]; first compound 0.8 µM): 0.434 | relative viability ([15]; first compound 2.53 µM): 0.429 | relative viability ([15]; first compound 8 µM): 0.441 | relative viability ([16]; first compound 0.253 µM): 0.206 | relative viability ([16]; first compound 0.8 µM): 0.232 | relative viability ([16]; first compound 2.53 µM): 0.218 | relative viability ([16]; first compound 8 µM): 0.221 | relative viability ([17]; first compound 0.253 µM): 0.405 | relative viability ([17]; first compound 0.8 µM): 0.419 | relative viability ([17]; first compound 2.53 µM): 0.403 | relative viability ([17]; first compound 8 µM): 0.45 | relative viability ([18]; first compound 0.253 µM): 0.436 | relative viability ([18]; first compound 0.8 µM): 0.374 | relative viability ([18]; first compound 2.53 µM): 0.433 | relative viability ([18]; first compound 8 µM): 0.314 | relative viability ([19]; first compound 0.253 µM): 0.91 | relative viability ([19]; first compound 0.8 µM): 1 | relative viability ([19]; first compound 2.53 µM): 1.19 | relative viability ([19]; first compound 8 µM): 0.716 | relative viability ([20]; first compound 0.253 µM): 0.697 | relative viability ([20]; first compound 0.8 µM): 0.684 | relative viability ([20]; first compound 2.53 µM): 0.64 | relative viability ([20]; first compound 8 µM): 0.631 | relative viability ([21]; first compound 0.253 µM): 0.541 | relative viability ([21]; first compound 0.8 µM): 0.533 | relative viability ([21]; first compound 2.53 µM): 0.6 | relative viability ([21]; first compound 8 µM): 0.685 | relative viability ([22]; first compound 0.253 µM): 0.366 | relative viability ([22]; first compound 0.8 µM): 0.342 | relative viability ([22]; first compound 2.53 µM): 0.413 | relative viability ([22]; first compound 8 µM): 0.354 | relative viability ([23]; first compound 2.53 µM): 0.52 | relative viability ([23]; first compound 8 µM): 0.454 | relative viability ([24]; first compound 0.253 µM): 0.328 | relative viability ([24]; first compound 0.8 µM): 0.363 | relative viability ([24]; first compound 2.53 µM): 0.308 | relative viability ([24]; first compound 8 µM): 0.285
